In US11591301B2, “Indoleamine-2,3-dioxygenase inhibitor, preparation method therefor and use thereof” (HINOVA PHARMACEUTICALS INC., priority 2018, dated 2023):

How the values were obtained:
[1] = Metabolic stability in rat liver microsomes; format: in vitro ADME; details: rat liver microsomes 0.5 mg/mL; read-out: Rat liver microsomes Half-life t1/2
Procedure: (§1) Step 1: the mother liquor is prepared according to the composition ratio in Table 3 below:
(§2) Step 2: two experiments were respectively carried out as follows:
(§3) A) Adding NADPH:10 μL of liver microsomes at a concentration of 20 mg/mL and 40 μL of NADPH at a concentration of 10 mM were added to the incubation test. The final concentrations of liver microsomes and NADPH were 0.5 mg/mL and 1 mM, respectively.
(§4) B) Without addition of NADPH:10 μL of liver microsomes at a concentration of 20 mg/mL and 40 μL of high purity water were added to the incubation test. The final concentration of liver microsome was 0.5 mg/mL.
(§5) Step 3: 4 μL of 200 µM positive control or test compound was added and then the reaction was carried out. The positive control in this experiment was Verapamil. The final concentration of test compound was […].
(§6) Step 4: 50 μL was respectively taken out from the reaction solutions at the time points of 0, 15, 30, 45 and 60 min. 4× volumes of acetonitrile and IS (alprazolam at the concentration of 100 nM, labetalol at the concentration of 200 nM, caffeine at the concentration of 200 nM and ketoprofen at the concentration of 2 μM) were added to the reaction solution. The sample was centrifuged at 3,220 gram gravity for 40 minutes. 100 μL high-purity water was added to 100 μL supernatant and then analyzed by LC-MS/MS.
(§7) Step 5: Data analysis: the peak area was determined from the extracted ion chromatogram. The slope value k was determined by linear regression of the natural logarithm from the curve produced by the remaining percentage of the parent drug vs the incubation time.
(§8) In vitro half-life (in vitro t1/2) is determined by the slope value: in vitro t1/2=−(0.693/k)

[2] = Pharmacokinetic experiment in mice (PO); format: in vivo; details: ICR, mouse, plasma, 10 mg/kg, 10 mpk; for Cmax: read-out: Blood concentration Cmax; for AUC: read-out: Curve area AUC; for half-life: read-out: Half life t1/2 (converted); for Tmax: read-out: Peak hour tmax
Procedure: Experimental animals: ICR mice (Chengdu Dashuo Experimental Animal Co., Ltd.)
5 mg of compound (compound 4 of the present invention, using similar compound INCB-24360 in clinical Phase III as reference compound) was accurately weighed, and the corresponding vehicle was added to a final volume of 10 ml, then mixed by ultrasonic vortexing. The solution at the concentration of 0.5 mg/ml was prepared. The final solution (0.2 ml) prepared was stored at −20° C. for concentration determination. 9 healthy adult ICR mice (20-30 g) were fasted overnight (free access to water), and received the administration volume of 0.2 ml/10 g by gavage; just prior to administration and 0.5, 1, 2, 4, 6, 8, 12, and 24 h after administration, 0.1 ml blood was collected from the retroorbital venous plexus, centrifuged at 4° C. for 5 min to separate the plasma, and stored at −20° C. for testing. Then the concentration of test compound in plasma was measured by LC/MS/MS method.

[3] = Metabolic stability in human liver microsomes; format: in vitro ADME; details: human liver microsomes 0.5 mg/mL; read-out: Human liver microsomes Half-life t1/2
Procedure: as §1, §2, §3, §4, §5, §6, §7, §8

[4] = target: IDO1 protease activity in Hela cells (Homo sapiens (Human), UniProt P14902); assay: Inhibition of IDO protease in HeLa cells (IDO/kynurenine experiment, IFN-γ induced); format: cell-based; details: 10 ng/mL IFN-γ, 48 h, OD480 nm, read-out: IC50, inhibitory activity against IDO1 protease activity in Hela cells
IDO1 protease activity in Hela cells, sequence (P14902 whole entry): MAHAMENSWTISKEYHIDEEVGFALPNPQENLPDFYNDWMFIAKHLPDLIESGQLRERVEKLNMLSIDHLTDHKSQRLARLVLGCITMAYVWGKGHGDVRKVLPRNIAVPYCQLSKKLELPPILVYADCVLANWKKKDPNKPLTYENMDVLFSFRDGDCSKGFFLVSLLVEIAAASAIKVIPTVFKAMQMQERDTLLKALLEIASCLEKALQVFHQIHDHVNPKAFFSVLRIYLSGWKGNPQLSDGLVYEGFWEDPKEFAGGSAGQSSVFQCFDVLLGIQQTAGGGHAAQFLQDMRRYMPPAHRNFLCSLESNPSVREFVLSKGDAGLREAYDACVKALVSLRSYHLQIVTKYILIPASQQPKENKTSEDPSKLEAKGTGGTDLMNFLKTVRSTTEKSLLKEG
Procedure: 2) Experimental Method for Compound Assay 2.1 Seeding HeLa Cells into 96 Well Plate
The medium was taken out from the flask and the cells were washed with PBS. TrypLE solution was added to the flask to make the cells separate. The cells were further washed once with fresh medium containing 10% FBS, and then re-suspended in the medium until the final concentration was 2.3×10^6/mL. Only cells with activity greater than 90% can be used for detection. HeLa cells were planted into 100 μL suitable growth median 96 well plate at 3000 cells/well. The cells were incubated at 37° C. under 5% CO2 overnight.
The compound was diluted to the concentration of 10 mM with DMSO, that was then continuously diluted 3 times to get 9 concentrations. 5 μL compound was added into 45 μL media as the median dilution (10 times dilution, containing 10% DMSO). 96 μL fresh growth media were added to each well to reach the total volume of 196 μL. 2 μL compound solution was taken from the mid-diluted solution and added to the cells in the wells of the assay plate, and then incubated in a 5% CO2 incubator at 37° C. for 30 minutes. 2 μL human IFN-γ solution was added to reach a total volume of 200 μL, with the final concentration of 10 ng/mL, and the final concentration is 0.1%. The cells were incubated in 5% CO2 incubator at 37° C. for 48 h.
After incubating for another 48 hours in a 5% CO2 incubator at 37° C., 140 μL supernatant was added to each well and transferred to a new 96-well plate. 10 μL of 6.1N CCl3COOH was further added to each well, and incubated at 50° C. for 30 min after sealing. The plate was then centrifuged at 2500 rpm for 10 minutes. 100 μL supernatant in each well was transferred to another 96-well assay plate and mixed with 100 μL of 6% (w/v) p-dimethylaminobenzaldehyde. EnSpire was used to read the plate at OD480 nm.
The average data of HC (high control: 10 ng/mL IFN-γ) and LC (low control: no IFN-γ) were calculated for each screening plate. Percent inhibition of compound well (% inh)=100*(aveHC−cpd well)/(aveHC−ave LC). Finally, GraphPad Prism 6 software was used to calculate the IC50 values of compounds and draw the effect-concentration curve.

[5] = Metabolic stability in mouse liver microsomes; format: in vitro ADME; details: mouse liver microsomes 0.5 mg/mL; read-out: Mouse liver microsomes Half-life t1/2
Procedure: as §1, §2, §3, §4, §5, §6, §7, §8

[6] = target: human IDO1 protease (Homo sapiens (Human), UniProt P14902); assay: Inhibitory activity against human IDO1 protease (absorbance test method); format: biochemical; details: IDO1 (His-tag) enzyme, absorbance at 320 nm
human IDO1 protease, sequence (P14902 whole entry): as above
Procedure: IDO1 (His-tag) enzyme(BPS Bioscience), L-tryptophan (Sigma), methylene blue (Sigma), Catalase originated from the liver of cattle (Sigma), L-ascorbic acid (Sigma), glycerol (Sigma), potassium dihydrogen phosphate solution (Sigma), Tween 20 (Sigma), automatic sampling platformLiquid handler (Bravo & Echo), microplate ReaderSpectraMax M5e (Molecular Devices).
2) Test Method of Compounds: The Compounds are Determined by Absorbance Test Method:
The tested compounds are dissolved in DMSO to prepare a high concentration of storage solution. The stock solution of reference compound was diluted with DMSO to prepare a 100× solution. In the first column of the working plate, 8 μL above tested compounds and 8 μL 100× reference compound were respectively added as the highest concentration, and then the highest concentrations were subjected to three times dilution to obtain 11 concentrations and prepare 100× solution. 0.5 μL solution was transferred from the above plate to the detection plate. To each well was added 0.5 μL 100× compound solution. For HPE and ZPE control wells, 0.5 μL 100% DMSO was added. 25 μL 2×IDO1 (His-tag) enzyme solution (containing L-ascorbic acid, methylene blue, and catalase) was added to each well. 25 μL reaction solution without IDO1 (His-tag) enzyme was added into HPE control well. The test plate was centrifugated at 1000 rpm for 1 minute to mix well. Then, the test plate was incubated at room temperature for 30 minutes. 25 μL above 2× substrate (L-tryptophan) solution was added to each well. The test plate was centrifugated at 1000 rpm for 1 minute to mix well. The detection plate was placed on ELISA (SpectraMax M5e), the temperature was set at 25° C., and the absorbance (OD value) was measured at 320 nm every 10 minutes till 60 minutes.
Calculating the increase ratio of absorbance: the slope of the absorbance increase curve from 10 min to 60 min is derived from SpectralMax M5e. The inhibition coefficient of compound was calculated: the inhibition ratio of compound=(the absorbance increase ratio of ZPE control well−the absorbance increase ratio of compound well)/(the absorbance increase ratio of ZPE control well−the absorbance increase ratio of HPE control well)×100. Results was analyzed by Prism 5.0.

CNS(=O)(=O)CCCNc1nonc1/C(=N/O)Nc1ccc(F)c(Br)c1 [Example 11, N-(3-bromo-4-fluorophenyl)-N′-hydroxyl-4-((3-(N-methylsulfamoyl)propyl)amino)-1,2,5-oxadiazol-3-formamidine]
half-life at 2 µM [1]: 0.4 h | Cmax [2]: 687 ng/mL | AUC [2]: 845 ng·h/mL | half-life [2]: 1.15 h | Tmax [2]: 0.5 h | half-life at 2 µM [3]: 1.55 h | IC50 [4]: 8 nM | half-life at 2 µM [5]: 0.167 h

NS(=O)(=O)CCNc1nonc1C(=NO)Nc1ccc(F)c(Br)c1 [Example 1, N-(3-bromo-4-fluorophenyl)-N′-hydroxyl-4-((2-sulfamoylethyl)amino)-1,2,5-oxadiazol-3-formamidine]
half-life at 2 µM [1]: 1.73 h | IC50 [6]: 19 nM | Cmax [2]: 555 ng/mL | AUC [2]: 1320 ng·h/mL | half-life [2]: 1.28 h | Tmax [2]: 0.67 h | half-life at 2 µM [3]: 7.45 h | half-life at 2 µM [5]: 0.8 h

[2H]C([2H])([2H])NS(=O)(=O)CCCNc1nonc1/C(=N/O)Nc1ccc(F)c(Br)c1 [Example 27, N-(3-bromo-4-fluorophenyl)-N′-hydroxyl-4-((3-(N-(methyl-d3)sulfonyl)propyl)amino)-1,2,5-oxadiazol-3-oximecarboxamide]
half-life at 2 µM [1]: 0.633 h | Cmax [2]: 469 ng/mL | AUC [2]: 1050 ng·h/mL | half-life [2]: 2.5 h | Tmax [2]: 0.5 h | half-life at 2 µM [3]: 5.72 h | IC50 [4]: 10 nM | half-life at 2 µM [5]: 0.35 h

NS(=O)(=O)CCCCNc1nonc1C(=NO)Nc1ccc(F)c(Br)c1 [Example 22, N-(3-bromo-4-fluorophenyl)-N′-hydroxyl-4-((4-sulfamoylbutyl)amino)-1,2,5-oxadiazol-3-formamidine]
half-life at 2 µM [1]: 1.22 h | half-life at 2 µM [3]: 29.4 h | IC50 [4]: 12 nM | half-life at 2 µM [5]: 1.45 h

NS(=O)(=O)NCCNc1nonc1C(=NO)Nc1ccc(F)c(Br)c1 [INCB024360, reference compound]
half-life at 2 µM [1]: 2.43 h | half-life at 2 µM [3]: 2.62 h | half-life at 2 µM [5]: 1.3 h

CCNS(=O)(=O)CCCNc1nonc1C(=NO)Nc1ccc(F)c(Br)c1 [Example 12, N-(3-bromo-4-fluorophenyl)-N′-hydroxyl-4-((3-(N-ethylsulfamoyl)propyl)amino)-1,2,5-oxadiazol-3-formamidine]
half-life at 2 µM [1]: 0.317 h | IC50 [6]: 47 nM | Cmax [2]: 704 ng/mL | AUC [2]: 1080 ng·h/mL | half-life [2]: 2.87 h | Tmax [2]: 0.5 h | half-life at 2 µM [3]: 2.73 h | IC50 [4]: 12 nM | half-life at 2 µM [5]: 0.383 h
